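Briefly, cells in 96-well plates were exposed to five compound concentrations for 48 h, and endpoints were estimated by linear interpolation. TGI denotes the concentration required for complete inhibition of growth.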
Columns and labels:
Assay in all cases: NCI anticancer screen, dose series, 48 h
K-562 leukemia = test system: K-562 leukemia
HCT-15 colon = test system: HCT-15 colon
HOP-92 NSCLC = test system: HOP-92 NSCLC
OVCAR-5 ovarian = test system: OVCAR-5 ovarian
OVCAR-3 ovarian = test system: OVCAR-3 ovarian
HS 578T breast = test system: HS 578T breast
SK-OV-3 ovarian = test system: SK-OV-3 ovarian
LOX IMVI melanoma = test system: LOX IMVI melanoma
SF-539 CNS = test system: SF-539 CNS
NCI-H23 lung = test system: NCI-H23 lung
MALME-3M melanoma = test system: MALME-3M melanoma
T-47D breast = test system: T-47D breast
MDA-N = test system: MDA-N
SF-295 CNS = test system: SF-295 CNS
DU-145 prostate = test system: DU-145 prostate
A498 renal = test system: A498 renal
HOP-62 NSCLC = test system: HOP-62 NSCLC
SK-MEL-5 melanoma = test system: SK-MEL-5 melanoma
UACC-62 melanoma = test system: UACC-62 melanoma
CAKI-1 renal = test system: CAKI-1 renal
RPMI-8226 leukemia = test system: RPMI-8226 leukemia
CCRF-CEM leukemia = test system: CCRF-CEM leukemia
SNB-19 CNS = test system: SNB-19 CNS
NCI-H522 lung = test system: NCI-H522 lung
OVCAR-4 ovarian = test system: OVCAR-4 ovarian
HT29 colon = test system: HT29 colon
NCI/ADR-RES ovarian = test system: NCI/ADR-RES ovarian
SR leukemia = test system: SR leukemia
OVCAR-8 ovarian = test system: OVCAR-8 ovarian
IGROV1 ovarian = test system: IGROV1 ovarian
M14 melanoma = test system: M14 melanoma
HCT-116 colon = test system: HCT-116 colon
RXF 393 renal = test system: RXF 393 renal
HL-60(TB) leukemia = test system: HL-60(TB) leukemia
BT-549 breast = test system: BT-549 breast
SK-MEL-2 melanoma = test system: SK-MEL-2 melanoma
COLO 205 colon = test system: COLO 205 colon
MDA-MB-231 breast = test system: MDA-MB-231 breast
NCI-H226 lung = test system: NCI-H226 lung
KM12 colon = test system: KM12 colon
ACHN renal = test system: ACHN renal
U251 CNS = test system: U251 CNS
SN12C renal = test system: SN12C renal
MCF7 breast = test system: MCF7 breast
PC-3 prostate = test system: PC-3 prostate
SW-620 colon = test system: SW-620 colon
MDA-MB-435 = test system: MDA-MB-435
TK-10 renal = test system: TK-10 renal
A549 NSCLC = test system: A549 NSCLC
NCI-H460 lung = test system: NCI-H460 lung
EKVX NSCLC = test system: EKVX NSCLC
786-0 renal = test system: 786-0 renal
SK-MEL-28 melanoma = test system: SK-MEL-28 melanoma
UACC-257 melanoma = test system: UACC-257 melanoma
SF-268 CNS = test system: SF-268 CNS
SNB-75 CNS = test system: SNB-75 CNS
MOLT-4 leukemia = test system: MOLT-4 leukemia
UO-31 renal = test system: UO-31 renal

Measured: TGI

CN(C)CCNS(=O)(=O)N(C)C
not listed: UO-31 renal
> 100 µM: all other assays above

Cc1ncc([N+](=O)[O-])n1CCNC(=O)CCC(=O)NCCCn1ccnc1[N+](=O)[O-]
not listed: SNB-19 CNS
> 100 µM: all other assays above

COc1ccc(N)c(C(=O)CCNC(C)=O)c1
not listed: K-562 leukemia | MALME-3M melanoma | HOP-62 NSCLC | SK-MEL-28 melanoma
> 100 µM: all other assays above

CC(C)NC1(C(N)=O)CCN(Cc2ccccc2)CC1
not listed: CCRF-CEM leukemia
> 100 µM: all other assays above

NC1(P(=O)(O)O)CCCCC1
not listed: UO-31 renal
> 100 µM: all other assays above

From PubChem BioAssay (NCI)
